{"source": "patent US20240384232A1", "about": "“CLINICAL-GRADE THERAPEUTIC PROGENITORS GENERATED FROM TANKYRASE/PARP-INHIBITED PLURIPOTENT STEM CELL BANKS” (THE JOHNS HOPKINS UNIVERSITY, priority 2022, published 2024)", "key": {"E5C3 CB-hiPSC": {"system": "E5C3 CB-hiPSC", "assay": "Retention of TRA-1-81+SSEA4+ phenotype by FACS after removing single inhibitors from LIF-4i", "assay_type": "cell-based, human", "details": "for Effect of removing the inhibitor from LIF-4i on the TRA-1-81+SSEA4+ phenotype: E5C3 kept in LIF-4i for 3 passages (6 days), then inhibitor removed, feeder-free", "text": "FIGS. 8A-8C. […] Alternatively, E5C3 CB-hiPSC were maintained in LIF-4i for 3passages (6 days) and then cither XAV939 (E5C3-XAV939, square datapoints, dotted line) or Go6983 (E5C3 LIF-3i, triangles, dashed line) were removed from the LIF-4i formulation. […] (8B) Representative photomicrographs and flow cytometry plots of CB-hiPSC when continuously cultured in LIF-4i (LIF+4i, 6 passages), or when cultured in LIF-4i for 3 passages and then transferred into FF conditions that omitted for 3 passages the PKC inhibitor Go6983 (LIF+3i) or the tankyrase/PARP inhibitor XAV939 (without XAV939) or without XAV939 and reducing the concentration of CHIR99021 (without XAV939, CHIR 1 uM)."}, "[1]": {"system": "tankyrase PARylating activity and PARP1-mediated PARylation", "details": "293T cells; cited from earlier work"}, "[2]": {"system": "tankyrases 1 and 2 (TANK 1/2) and AXIN-1 proteins", "assay": "Western blot of tankyrase-regulated proteins in primed vs LIF-4i TIRN cultures", "assay_type": "cell-based, human", "details": "LIF-4i (contains XAV939) vs isogenic primed E8", "experimental": "Western blots were performed of primed vs. TIRN lysates of hESC RUES02 and three independent XF/FF UTIRN CB-hiPSC lines (E32C1XF, E32C4XF, E32C6XF). ACTIN, HSP90 and total STAT3 served as internal loading controls. Western blots of XAV939-inhibited proteolysis of tankyrases 1 and 2(TANK 1/2) and AXIN-1 proteins in isogenic primed vs. TIRN conditions for TIRN-reverted RUES02 and XF/FF CB-hiPSC lines. Western blot analysis of hPSC lines in primed (E8) and naïve (LIF-4i) cultures for expression of phosphorylated (phospho.) STAT3 and ERK1/2, tankyrase 1/2 and axin1.\nCell lysates were prepared from parallel primed (E8) and TIRN (LIF-4i) cultures and 20 or 35 ug of proteins were loaded per lane."}, "[3]": {"system": "LIF-4i UTIRN-CB-hiPSC (E32C6XF)", "assay": "Cell attachment during passaging onto Vitronectin-XF-coated plates", "assay_type": "cell-based, human", "details": "overnight exposure, 2-5 uM", "text": "FIGS. 9A-9C. Optimization of the transition step from E8 primed hPSC conditions to LIF-4i TIRN conditions: clonal cell passaging. (9A) Clonal efficiency during the first passage in LIF-4i TIRN conditions for hESC line (RUES01). Supplementation of LIF-3i with forskolin and purmophamine (i.e., LIF-5i) and brief adaptation of primed hPSC was previously shown to facilitate clonal transition and survival of primed cells to TIRN hPSC when subsequently cultured continuously in LIF-3i TIRN conditions on feeders. […] Therefore, the brief LIF-5i adaptation period was limited to only overnight exposure prior to passaging. […] (9A—middle, right panels) In contrast, high density culture in E8 (e.g., up to 6 days) prior to passaging in LIF-4i negatively impacted the transition into LIF-4i TIRN conditions. Photomicrographs represent primed cultures immediately prior to passaging into LIF-4i TIRN conditions. (9B) Requirement for ROCK inhibitor Y27632during passaging.\nFIG. 7A outlines the transition between primed (i.e. E8) and the LIF-4i FF-TIRN-reverted system. Upon passaging into LIF-4i, hPSC immediately adopt a smaller dome-shaped morphology that expands from single cells. Photomicrographs document the morphology of the hiPSC line 6.2 during the first passages into LIF-4i (bulk passaging without colony picking) and after stable expansion for 10 consecutive passages (FIG. 7B). […]"}, "[4]": {"system": "Primed E8 and LIF-4i UTIRN-hiPSC", "assay": "DNA damage induction with radiomimetic, Western blot of DNA repair machinery", "assay_type": "cell-based, human", "details": "4 hours treatment; TIRN-hPSC vs primed E8 hPSC", "text": "FIGS. 20A-20B. Induction of DNA damage in primed hPSC and XF/FF UTIRN-hPSC following exposure to the radiomimetic DNA damage inducing agent neocarzinostatin (NCS). Unlike somatic cells, naïve mouse embryonic stem cells (ESC) employ homologous recombination machinery to repair double strand breaks. However, imbalanced levels of DNAPKc in mouse ESC results into poor capacity for rejoining of radiation-induced DNA double-strand breaks in comparison to human primed ESC.\nMethods. Conventional (primed) XF CB-hiPSC lines and control H9 hESC were grown in E8 medium. Isogenic TIRN-hPSC were cultured in parallel using LIF-4i. For Western blotting, whole cell lysates were prepared in RIPA buffer, 1.5 mM EDTA with protease inhibitor. Protein lysates were quantified using the BCA assay. Equal amounts of total protein lysate (e.g., 20 μg) were loaded into precast polyacrylamide gradient gels, size-separated using the Mini-PROTEAN electrophoresis system and blotted onto PDVF membranes for chemiluminescent analysis. Primed hPSC and isogenic TIRN-hPSC were assayed for endogenous DNA damage during routine culture (FIG. 20) or upon DSB induction using the radiomimetic agent neocarzinostatin (NCS). In these experiments, hPSC were treated for 4 hours with NCS before preparing lysates. […]"}}, "note": "Entries after “also recorded” stand apart in the source; their conditions may differ."}
{"molecule": "Cc1cnc(-c2cnc(NCCNc3ccc(C#N)cn3)nc2-c2ccc(Cl)cc2Cl)[nH]1", "note": "[CHIR99021, 6-[[2-[[4-(2,4-Dichlorophenyl)-5-(5-methyl-1H-imidazol-2-yl)-2-pyrimidinyl]amino]ethyl]amino]-3-pyridinecarbonitrile]", "values": [{"measurement": "Rescue of XAV939 depletion by reduced CHIR99021 concentration", "setting": "E5C3 CB-hiPSC; E5C3, without XAV939, CHIR99021 @ 1 uM", "result": "not rescued"}]}
{"molecule": "COc1ccc2c(c1)c(C1=C(c3c[nH]c4ccccc34)C(=O)NC1=O)cn2CCCN(C)C", "note": "[Go6983]", "values": [{"measurement": "Effect of removing the inhibitor from LIF-4i on the TRA-1-81+SSEA4+ phenotype", "setting": "E5C3 CB-hiPSC", "result": "hiPSC started differentiating after a few days without Go6983"}]}
{"molecule": "Oc1nc(-c2ccc(C(F)(F)F)cc2)nc2c1CSCC2", "note": "[XAV939]", "values": [{"measurement": "Effect of removing the inhibitor from LIF-4i on the TRA-1-81+SSEA4+ phenotype", "setting": "E5C3 CB-hiPSC", "result": "rapid loss of TRA-1-81 and SSEA4 expression"}, {"measurement": "Effect on tankyrase and PARP1-mediated PARylation", "setting": "[1]", "result": "downregulate tankyrase PARylating activity, but also PARP1-mediated PARylation"}, {"measurement": "Levels of tankyrase-PARylation-regulated proteins (AXIN1, tankyrases)", "setting": "[2]", "result": "tankyrase auto-PARylation and proteolysis is inhibited by XAV939; also recorded: upregulated"}]}
{"molecule": "C[C@@H](N)[C@H]1CC[C@H](C(=O)Nc2ccncc2)CC1", "note": "[Y-27632]", "values": [{"measurement": "Promotion of cell attachment during passaging", "setting": "[3]", "result": "sufficient and required to promote efficient attachment"}]}
{"molecule": "neocarzinostatin [NCS]", "values": [{"measurement": "phospho-H2AX response to DSB induction", "setting": "[4]", "result": "elevated levels of phospho-H2AX"}]}
